{"source": "patent US11559527B2", "about": "(priority 2017, dated 2023)", "test_system": "A375 melanoma cells", "test": "Tumorsphere formation assay, A375", "assay_type": "cell-based", "protocol": "One of the gold standard techniques for the study and identification of CSCs is the sphere formation assay, an in vitro culture system that enriches for CSCs. Under these anchorage-independent culture conditions, CSCs preferentially form the so-called tumorspheres, whereas more differentiated cells die rapidly.\nTUMORSPHERE FORMATION ASSAY: A single cell suspension was prepared using enzymatic (1× Trypsin-EDTA, T3924, Sigma Aldrich), and manual disaggregation (25 gauge needle). […] After 5 days of culture in a humidified incubator at 37° C., tumorspheres bigger than 50 μm were counted using an eye piece graticule."}
{"smiles": "COc1cc(-n2c(S)nc3ccccc3c2=O)c(Cl)cc1Cl", "note": "[mDIVI-1, 3-(2,4-Dichloro-5-methoxyphenyl)-2-sulfanyl-4(3H)-quinazolinone]", "values": [{"measurement": "decrease of tumorsphere forming capacity", "setting": "A375, 10 μM", "value": "over 35%"}, {"measurement": "decrease of tumorsphere forming capacity", "setting": "A375, 50 μM", "value": "over 90%"}]}
